Blank lines part the entries; values can stand above or below the molecule they belong to. Calls of active or inactive are those of the source. No cut-off for these calls is given here.
Legend:
[1] = biological target: T1, Polyunsaturated fatty acid lipoxygenase ALOX15 (Homo sapiens, UniProt P16050); assay: Inhibition of LOX-15 (unknown origin)
T1 sequence (P16050 whole entry): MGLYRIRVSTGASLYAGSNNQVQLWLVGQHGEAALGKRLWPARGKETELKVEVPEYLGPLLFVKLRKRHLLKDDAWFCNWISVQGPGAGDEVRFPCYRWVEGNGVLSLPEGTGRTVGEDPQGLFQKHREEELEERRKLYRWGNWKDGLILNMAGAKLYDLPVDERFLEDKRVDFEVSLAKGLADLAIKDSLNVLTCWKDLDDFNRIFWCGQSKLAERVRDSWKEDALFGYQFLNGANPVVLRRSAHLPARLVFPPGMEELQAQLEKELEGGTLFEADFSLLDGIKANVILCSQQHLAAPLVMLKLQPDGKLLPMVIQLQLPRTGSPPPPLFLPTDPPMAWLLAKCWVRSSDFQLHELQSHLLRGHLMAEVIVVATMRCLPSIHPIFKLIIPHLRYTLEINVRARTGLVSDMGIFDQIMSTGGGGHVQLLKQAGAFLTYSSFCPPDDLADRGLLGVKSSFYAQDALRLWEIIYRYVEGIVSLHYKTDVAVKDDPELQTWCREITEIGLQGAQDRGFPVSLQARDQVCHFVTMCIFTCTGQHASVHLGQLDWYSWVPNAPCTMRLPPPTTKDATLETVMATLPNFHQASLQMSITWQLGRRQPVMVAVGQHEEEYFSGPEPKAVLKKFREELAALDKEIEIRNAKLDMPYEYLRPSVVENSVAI

[2] = Inhibition of TNF-alpha induced ICAM-1 protein expression in HUVEC cells; assay type: functional, cell-based; settings: Homo sapiens
RAW264.7 [3] = assay: Cytotoxicity against mouse RAW264.7 cells assessed as reduction in cell viability at 1 to 20 uM incubated for 24 hrs by MTT assay; assay type: toxicity, cell-based; settings: raw264.7, 24 h, dose 1-20 µM
RAW264.7 [4] = assay: Antiinflammatory activity in LPS-induced mouse RAW264.7 cells assessed as inhibition of NO production at 1 to 20 uM pretreated for 1 hr followed by LPS stimulation and measured after 23 hrs by Griess method; assay type: functional, cell-based; settings: dose 1-20 µM, time 24.0 hrs
RAW264.7 [5] = assay: Antiinflammatory activity in LPS-induced mouse RAW264.7 cells assessed as inhibition of NO production pretreated for 1 hr followed by LPS stimulation and measured after 23 hrs by Griess method; assay type: functional, cell-based
RAW264.7 [6] = assay: Antiinflammatory activity in LPS-induced mouse RAW264.7 cells assessed as inhibition of TNF-alpha production at 20 uM pretreated for 1 hr followed by LPS stimulation and measured after 24 hrs by ELISA; assay type: functional, cell-based; settings: time 25.0 hrs
RAW264.7 [7] = assay: Antiinflammatory activity in LPS-induced mouse RAW264.7 cells assessed as inhibition of IL-6 production at 20 uM pretreated for 1 hr followed by LPS stimulation and measured after 24 hrs by ELISA; assay type: functional, cell-based; settings: time 25.0 hrs
RAW264.7 [8] = assay: Antiinflammatory activity in LPS-induced mouse RAW264.7 cells assessed as inhibition of TNF-alpha production pretreated for 1 hr followed by LPS stimulation and measured after 24 hrs by ELISA; assay type: functional, cell-based; settings: dose 1-10 µM, time 25.0 hrs
RAW264.7 [9] = assay: Antiinflammatory activity in LPS-induced mouse RAW264.7 cells assessed as inhibition of IL-6 production pretreated for 1 hr followed by LPS stimulation and measured after 24 hrs by ELISA; assay type: functional, cell-based; settings: dose 1-10 µM, time 25.0 hrs
RAW264.7 [10] = assay: Antiinflammatory activity in LPS-induced mouse RAW264.7 cells assessed as increase in IL-10 production pretreated for 1 hr followed by LPS stimulation and measured after 24 hrs by ELISA; assay type: functional, cell-based; settings: dose 1-10 µM, time 25.0 hrs
RAW264.7 [11] = assay: Antiinflammatory activity in LPS-induced mouse RAW264.7 cells assessed as reduction in COX-2 protein expression pretreated for 1 hr followed by LPS stimulation and measured after 24 hrs by Western blot analysis; assay type: functional, cell-based; settings: dose 10-20 µM, time 25.0 hrs
RAW264.7 [12] = assay: Antiinflammatory activity in LPS-induced mouse RAW264.7 cells assessed as reduction in iNOS protein expression pretreated for 1 hr followed by LPS stimulation and measured after 24 hrs by Western blot analysis; assay type: functional, cell-based; settings: dose 10-20 µM, time 25.0 hrs
RAW264.7 [13] = assay: Inhibition of LPS-induced NF-kappaB activation in mouse RAW264.7 cells assessed as inhibition of p65 phosphorylation pretreated for 1 hr followed by LPS stimulation and measured after 24 hrs by Western blot analysis; assay type: cell-based; settings: dose 10-20 µM, time 25.0 hrs
RAW264.7 [14] = assay: Effect on NF-kappaB p65 protein expression in LPS-induced mouse RAW264.7 cells at 10 to 20 uM pretreated for 1 hr followed by LPS stimulation and measured after 24 hrs by Western blot analysis; assay type: functional, cell-based; settings: dose 10-20 µM, time 25.0 hrs
RAW264.7 [15] = assay: Inhibition of LPS-induced NF-kappaB activation in mouse RAW264.7 cells assessed as reduction in nuclear translocation pretreated for 1 hr followed by LPS stimulation and measured after 24 hrs by immunofluorescence staining based fluorescence microscopic analysis; assay type: cell-based; settings: dose 10-20 µM, time 25.0 hrs

IC50 [1]: 1.58 µM
Compound: CN(C)c1ccc(/C=C/C(=O)c2cccc(-n3cc(CN4C(=O)C(=O)c5ccccc54)nn3)c2)cc1

IC50 [2]: 20 µM
Compound: COc1ccc(N/N=C2\C(=O)N(CCCn3cncn3)c3ccc(Br)cc32)cc1

IC50 (RAW264.7 [5]): 3.13 µM
Compound: C=C1CC[C@H]2C(C)(C)CCC[C@]2(C)[C@H]1C/C=C(/C=O)CC(=O)OCc1cn(CCN2C(=O)C(=O)c3ccccc32)nn1
Activity (RAW264.7 [3]): Non-Toxic
Activity (RAW264.7 [4]): Active
Activity (RAW264.7 [6]): Active
Activity (RAW264.7 [7]): Active
Activity (RAW264.7 [8]): Dose-Dependent Effect
Activity (RAW264.7 [9]): Dose-Dependent Effect
Activity (RAW264.7 [10]): Dose-Dependent Effect
Activity (RAW264.7 [11]): Dose-Dependent Effect
Activity (RAW264.7 [12]): Dose-Dependent Effect
inhibition (RAW264.7 [13]): Dose-Dependent Effect
Activity (RAW264.7 [14]): inactive
inhibition (RAW264.7 [15]): Dose-Dependent Effect
